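1) Cells in 96-well plates. 2) Compound, 48 h, 5 concentrations. 3) Linear interpolation between surrounding doses. 4) Unreached endpoint = highest concentration. At the GI50, growth is halved. At the TGI there is no net growth.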
Columns and labels:
Assay in all cases: NCI tumour cell line growth inhibition, 48 h
NCI-H226 lung = test system: NCI-H226 lung
NCI-H23 lung = test system: NCI-H23 lung
NCI-H460 lung = test system: NCI-H460 lung
NCI-H522 lung = test system: NCI-H522 lung
NCI/ADR-RES ovarian = test system: NCI/ADR-RES ovarian
OVCAR-3 ovarian = test system: OVCAR-3 ovarian
OVCAR-4 ovarian = test system: OVCAR-4 ovarian
OVCAR-5 ovarian = test system: OVCAR-5 ovarian
OVCAR-8 ovarian = test system: OVCAR-8 ovarian
PC-3 prostate = test system: PC-3 prostate
RPMI-8226 leukemia = test system: RPMI-8226 leukemia
RXF 393 renal = test system: RXF 393 renal
SF-268 CNS = test system: SF-268 CNS
SF-539 CNS = test system: SF-539 CNS
SK-MEL-2 melanoma = test system: SK-MEL-2 melanoma
SK-MEL-28 melanoma = test system: SK-MEL-28 melanoma
SK-MEL-5 melanoma = test system: SK-MEL-5 melanoma
SK-OV-3 ovarian = test system: SK-OV-3 ovarian
SN12C renal = test system: SN12C renal
SNB-19 CNS = test system: SNB-19 CNS
SNB-75 CNS = test system: SNB-75 CNS
SR leukemia = test system: SR leukemia
SW-620 colon = test system: SW-620 colon
T-47D breast = test system: T-47D breast
TK-10 renal = test system: TK-10 renal
UACC-62 melanoma = test system: UACC-62 melanoma
UO-31 renal = test system: UO-31 renal

## CCOC(=O)C1=C(N)CCC1C (centres undefined)
NCI-H226 lung
  GI50: > 100 µM
  TGI: > 100 µM
NCI-H23 lung
  GI50: > 100 µM
  TGI: > 100 µM
NCI-H460 lung
  GI50: > 100 µM
  TGI: > 100 µM
NCI-H522 lung
  GI50: > 100 µM
  TGI: > 100 µM
NCI/ADR-RES ovarian
  GI50: > 100 µM
  TGI: > 100 µM
OVCAR-3 ovarian
  GI50: > 100 µM
  TGI: > 100 µM
OVCAR-4 ovarian
  GI50: > 100 µM
  TGI: > 100 µM
OVCAR-5 ovarian
  GI50: > 100 µM
  TGI: > 100 µM
OVCAR-8 ovarian
  GI50: > 100 µM
  TGI: > 100 µM
PC-3 prostate
  GI50: > 100 µM
  TGI: > 100 µM
RPMI-8226 leukemia
  GI50: > 100 µM
  TGI: > 100 µM
RXF 393 renal
  GI50: > 100 µM
  TGI: > 100 µM
SF-268 CNS
  GI50: > 100 µM
  TGI: > 100 µM
SF-539 CNS
  GI50: > 100 µM
  TGI: > 100 µM
SK-MEL-2 melanoma
  GI50: > 100 µM
  TGI: > 100 µM
SK-MEL-28 melanoma
  GI50: > 100 µM
  TGI: > 100 µM
SK-MEL-5 melanoma
  GI50: > 100 µM
  TGI: > 100 µM
SK-OV-3 ovarian
  GI50: > 100 µM
  TGI: > 100 µM
SN12C renal
  GI50: > 100 µM
  TGI: > 100 µM
SNB-19 CNS
  GI50: > 100 µM
  TGI: > 100 µM
SNB-75 CNS
  GI50: > 100 µM
  TGI: > 100 µM
SR leukemia
  GI50: 8.35 µM
  TGI: > 100 µM
SW-620 colon
  GI50: > 100 µM
  TGI: > 100 µM
T-47D breast
  GI50: > 100 µM
  TGI: > 100 µM
TK-10 renal
  GI50: > 100 µM
  TGI: > 100 µM
UACC-62 melanoma
  GI50: > 100 µM
  TGI: > 100 µM
UO-31 renal
  GI50: > 100 µM
  TGI: > 100 µM

From PubChem BioAssay (NCI)
